Read-outs that look alike come from different tables or passages of the source.
Legend:
SERT = target: T1, SERT (Rattus norvegicus, UniProt P31652); assay: Serotonin (5-HT) reuptake inhibition, rat cortical synaptosomes; assay type: biochemical; details: rat cortical synaptosome preparation
T1 construct: rat cortical synaptosome preparation; from tissue; host or cells: rat cortical synaptosomes
Experimental: (§1) Non-specific uptake was determined in the presence of 10 μM talsupram or citalopram and the total uptake was determined in the presence of buffer. Aliquots were incubated for 15 minutes at 37° C. […] Filters were washed and counted in a Wallac MicroBeta counter.

NET = target: T2, NET (Rattus norvegicus, UniProt Q63380); assay: Norepinephrine (NE) reuptake inhibition, rat cortical synaptosomes; assay type: biochemical; details: rat cortical synaptosome preparation; read-out: IC50 at NET ([3H]NE uptake)
T2 construct: rat cortical synaptosome preparation; from tissue; host or cells: rat cortical synaptosomes
T2 sequence (Q63380 1-617): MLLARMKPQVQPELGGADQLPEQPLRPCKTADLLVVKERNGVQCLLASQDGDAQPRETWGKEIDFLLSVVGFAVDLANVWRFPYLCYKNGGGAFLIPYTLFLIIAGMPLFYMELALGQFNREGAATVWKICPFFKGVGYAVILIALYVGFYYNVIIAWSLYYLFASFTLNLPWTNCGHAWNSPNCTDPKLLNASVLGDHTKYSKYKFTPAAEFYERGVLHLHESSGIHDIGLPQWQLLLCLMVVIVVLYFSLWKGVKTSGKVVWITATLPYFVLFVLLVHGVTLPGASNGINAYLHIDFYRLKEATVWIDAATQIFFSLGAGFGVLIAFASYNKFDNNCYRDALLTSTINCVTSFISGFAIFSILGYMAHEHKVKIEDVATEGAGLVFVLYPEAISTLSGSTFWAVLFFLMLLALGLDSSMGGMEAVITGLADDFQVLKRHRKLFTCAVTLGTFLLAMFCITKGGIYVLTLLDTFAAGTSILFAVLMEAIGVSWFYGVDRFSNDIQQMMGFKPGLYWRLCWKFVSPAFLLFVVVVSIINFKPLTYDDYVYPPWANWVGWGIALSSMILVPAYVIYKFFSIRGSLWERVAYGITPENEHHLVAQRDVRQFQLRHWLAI
Experimental: as §1

[1] = target: T3, human-homomeric 5-HT3A receptors (Homo sapiens, UniProt P46098); assay: Electrophysiology in oocytes expressing human-homomeric 5-HT3A receptors; assay type: cell-based
T3 sequence (P46098 24-478): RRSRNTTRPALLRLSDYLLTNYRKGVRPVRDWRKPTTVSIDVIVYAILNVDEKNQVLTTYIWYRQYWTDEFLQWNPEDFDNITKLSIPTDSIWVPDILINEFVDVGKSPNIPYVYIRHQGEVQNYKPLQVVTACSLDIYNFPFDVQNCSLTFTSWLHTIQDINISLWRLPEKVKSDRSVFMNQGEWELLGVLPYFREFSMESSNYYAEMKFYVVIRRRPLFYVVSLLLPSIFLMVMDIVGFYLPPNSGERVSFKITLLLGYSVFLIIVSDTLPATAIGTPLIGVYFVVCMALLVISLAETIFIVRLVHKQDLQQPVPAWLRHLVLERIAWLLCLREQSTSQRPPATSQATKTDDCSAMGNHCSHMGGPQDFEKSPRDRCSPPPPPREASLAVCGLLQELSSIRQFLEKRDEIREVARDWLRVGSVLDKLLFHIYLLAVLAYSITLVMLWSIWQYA
Experimental: The experiments were carried out as follows. […] Oocytes avoid of the follicle layer were selected and incubated for 24 hours in Modified Barth's Saline buffer [88 mM NaCl, 1 mM KCl, 15 mM HEPES, 2.4 mM NaHCO3, 0.41 mM CaCl2, 0.82 mM MgSO4, 0.3 mM Ca(NO3)2] supplemented with 2 mM sodium pyruvate, 0.1 U/l penicillin and 0.1 μg/l streptomycin. Stage […] oocytes were identified and injected with 12-48 nl of nuclease free water containing 14-50 pg of cRNA coding for human 5-HT3A receptors receptors and incubated at 18° C. until they were used for electrophysiological recordings (1-7 days after injection). […] Cells were impaled with agar plugged 0.5-1 MΩ electrodes containing 3 M KCl and voltage clamped at −90 mV by a GeneClamp 500B amplifier. The oocytes were continuously perfused with Ringer buffer and the drugs were applied in the perfusate.

α1A receptor = target: T4, α1A receptor (Homo sapiens, UniProt P35348); assay: α1A receptor affinity, [3H]-Prazosin binding to membranes; details: Ki by Cheng Prusoff, read-out: Ki, affinity for α1A receptors
T4 sequence (P35348 1-466): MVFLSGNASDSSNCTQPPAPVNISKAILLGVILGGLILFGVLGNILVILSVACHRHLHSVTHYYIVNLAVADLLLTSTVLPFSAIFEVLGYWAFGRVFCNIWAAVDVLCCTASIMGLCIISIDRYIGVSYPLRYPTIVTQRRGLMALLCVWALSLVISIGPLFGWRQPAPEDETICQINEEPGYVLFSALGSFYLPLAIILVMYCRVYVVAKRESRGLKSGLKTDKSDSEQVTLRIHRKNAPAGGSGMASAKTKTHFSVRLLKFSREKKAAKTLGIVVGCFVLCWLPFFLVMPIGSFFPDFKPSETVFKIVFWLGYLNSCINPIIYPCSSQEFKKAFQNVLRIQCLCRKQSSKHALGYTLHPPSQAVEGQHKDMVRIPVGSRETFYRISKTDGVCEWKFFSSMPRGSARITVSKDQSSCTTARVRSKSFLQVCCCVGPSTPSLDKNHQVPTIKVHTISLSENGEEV
Experimental: On the day of the experiments membranes (see below for description of membrane preparation) are thawed and homogenized in buffer using an ultra turrax and diluted to the desired concentration (5 μg/well˜5/900 μl, store on ice until use). The experiment is initiated by mixing of 50 μl test compound, 50 μl [^3H]-Prazosin and […], and the mixture is incubated for 20 minutes at 25° C. Non-specific binding is determined in the presence of 10 μM WB-4101 and the total binding is determined in the presence of buffer. After the incubation, bound ligand is separated from unbound by filtration through Unifilter GF/B, presoaked in 0.1% PEI for 30 minutes, using a Tomtec Cell Harvester program (D4.2..4). 96 well. Filters are washed 3 times with 1 ml ice-cold buffer, dried at 50° C. and 35 μl scintillation liquid/well is added to the filters. Bound radioactivity is counted in a Wallac OY 1450 MicroBeta. […] Concentrations of compound covering 2 decades were used to calculate the IC50 value.

[2] = test system: extracellular levels of acetylcholine in the prefrontal cortex and ventral hippocampus; assay: Microdialysis, extracellular acetylcholine levels in freely-moving rats; assay type: in vivo, rat; details: FIGS. 1a and 1b
Experimental: Male Sprague-Dawley rats, initially weighing 275-300 g, were used. The animals were housed under a 12-hr light/dark cycle under controlled conditions for regular in-door temperature (21±2° C.) and humidity (55±5%) with food and tap water available ad libitum.
Rats were anaesthetised with hypnorm/dormicum (2 ml/kg) and intracerebral guide cannulas (CMA/12) were stereotaxically implanted into the hippocampus, aiming to position the dialysis probe tip in the ventral hippocampus (co-ordinates: 5.6 mm posterior to bregma, lateral—5.0 mm, 7.0 mm ventral to dura or in the frontal cortex (co-ordinates: 3.2 mm anterior to bregma; lateral, 0.8 mm; 4.0 mm ventral to dura). Anchor screws and acrylic cement were used for fixation of the guide cannulas. The body temperature of the animals was monitored by rectal probe and maintained at 37° C. The rats were allowed to recover from surgery for 2 days, housed singly in cages. […]
Concentration of acetylcholine (ACh) in the dialysates was analysed by means of HPLC with electrochemical detection using a mobile phase consisting of 100 mM disodium hydrogenphosphate, 2.0 mM octane sulfonic acid, 0.5 mM tetramethylammonium chloride and 0.005% MB (ESA), pH 8.0. […] The latter was detected electrochemical by using a platinum electrode (Analytical cell: ESA, model 5040). […]

[3] = test system: extracellular dopamine (DA) levels in the rat frontal cortex; assay: Microdialysis, extracellular dopamine levels in rat frontal cortex; assay type: in vivo; details: single injection
Experimental: Male Sprague-Dawley rats, initially weighing 275-300 g, were used. The animals were housed under a 12-hr light/dark cycle under controlled conditions for regular in-door temperature (21±2° C.) and humidity (55±5%) with food and tap water available ad libitum. For the three-day treatment experiments osmotic minipumps (Alzet, 2ML1) were used. The pumps were filled under aseptic conditions and implanted subcutaneously under sevoflurance anaesthesia. The experiments were carried out with the minipumps on board. Blood samples for measuring plasma levels of the test compound after 3 days of treatment were collected at the end of the experiments. Animals were anaesthetised with hypnorm/dormicum (2 ml/kg) and intracerebral guide cannulas (CMA/12) were stereotaxically implanted into the hippocampus, positioning the dialysis probe tip in the ventral hippocampus (co-ordinates: 5.6 mm […] to bregma, lateral—5.0 mm, 7.0 mm ventral to dura or in the frontal cortex (co-ordinates: 3.2 mm anterior to bregma; lateral, 3.0 mm; 4.0 mm ventral to dura). Anchor screws and acrylic cement were sued for fixation of the guide cannulas. The body temperature of the animals was monitored by rectal probe and maintained at 37° C. The rats were allowed to recover from surgery for 2 days, housed singly in cages. […]

[4] = test system: formalin model of neuropathic pain; assay: Formalin model of neuropathic pain in mice; assay type: in vivo, C57/B6 mice
Experimental: The irritation caused by the formalin injection elicits a characteristic biphasic behavioural response, as quantified by the amount of time spent licking the injured paw. The first phase (—O—10 minutes) represents direct chemical irritation and nociception, whereas the second (−20-30 minutes) is thought to represent pain of neuropathic origin. The two phases are separated by a quiescent period in which behaviour returns to normal. Measuring the amount of time spent licking the injured paw in the two phases assesses the effectiveness of test compounds to reduce the painful stimuli. Eight C57/B6 mice (ca. 25 g) were tested per group. […] The amount of compound administered is calculated as the free base.

5-HT2A receptors [5] = target: T5, 5-HT2A receptors (Homo sapiens, UniProt P28223); assay: 5-HT2A receptor affinity (MDL Pharmaservices catalogue number 271650); assay type: binding; set-up: purchased MDL Pharmaservices 271650
T5 sequence (P28223 whole entry): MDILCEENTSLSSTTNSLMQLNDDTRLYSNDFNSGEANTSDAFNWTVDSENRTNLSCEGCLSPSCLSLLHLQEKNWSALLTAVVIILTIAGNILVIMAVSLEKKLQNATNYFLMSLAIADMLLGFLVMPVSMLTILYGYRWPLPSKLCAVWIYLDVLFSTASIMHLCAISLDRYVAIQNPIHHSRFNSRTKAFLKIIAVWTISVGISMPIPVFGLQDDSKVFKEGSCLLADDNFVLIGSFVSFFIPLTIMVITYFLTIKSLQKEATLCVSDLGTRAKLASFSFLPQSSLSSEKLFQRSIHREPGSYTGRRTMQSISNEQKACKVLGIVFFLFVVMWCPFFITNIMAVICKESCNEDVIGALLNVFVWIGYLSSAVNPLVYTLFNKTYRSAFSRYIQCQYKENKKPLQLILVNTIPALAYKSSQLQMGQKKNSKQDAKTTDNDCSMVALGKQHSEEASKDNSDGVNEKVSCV

5-HT2A receptors [6] = target: T5, 5-HT2A receptors; assay: Binding to human 5-HT2A receptors expressed in mammalian cells; set-up: expressed in transfected cells; host or cells: CHO cells; details: mammalian cells expressing human 5-HT2A receptors
5-HT2A receptors [7] = target: T5, 5-HT2A receptors; assay: Antagonism of 5-HT evoked Ca2+ release in CHO cells expressing human 5-HT2A receptors (FLIPR); assay type: cell-based; set-up: expressed in transfected cells; host or cells: CHO cells
Experimental: The experiment was carried out as follows. 2 or 3 days before the experiment CHO cells expressing 250 fmol/mg human 5-HT2A receptors are plated at a density sufficient to yield a mono-confluent layer on the day of the experiment. The cells are dye loaded (Ca^2+-kit from Molecular Devices) for 60 minutes at 37° C. in a 5% CO2 incubator at 95% humidity. Basal fluorescence was monitored in a fluorometric imaging plate reader or FLIPR^384 from Molecular Devices (Sunnyvale, Calif.) with an excitation wavelength of 488 nm and an emission range of 500 to 560 nm. […] The variation in basal fluorescence should be less than 10%. […] IC; values were calculated using Cheng-Prusoff equation.

T1 sequence (P31652 whole entry): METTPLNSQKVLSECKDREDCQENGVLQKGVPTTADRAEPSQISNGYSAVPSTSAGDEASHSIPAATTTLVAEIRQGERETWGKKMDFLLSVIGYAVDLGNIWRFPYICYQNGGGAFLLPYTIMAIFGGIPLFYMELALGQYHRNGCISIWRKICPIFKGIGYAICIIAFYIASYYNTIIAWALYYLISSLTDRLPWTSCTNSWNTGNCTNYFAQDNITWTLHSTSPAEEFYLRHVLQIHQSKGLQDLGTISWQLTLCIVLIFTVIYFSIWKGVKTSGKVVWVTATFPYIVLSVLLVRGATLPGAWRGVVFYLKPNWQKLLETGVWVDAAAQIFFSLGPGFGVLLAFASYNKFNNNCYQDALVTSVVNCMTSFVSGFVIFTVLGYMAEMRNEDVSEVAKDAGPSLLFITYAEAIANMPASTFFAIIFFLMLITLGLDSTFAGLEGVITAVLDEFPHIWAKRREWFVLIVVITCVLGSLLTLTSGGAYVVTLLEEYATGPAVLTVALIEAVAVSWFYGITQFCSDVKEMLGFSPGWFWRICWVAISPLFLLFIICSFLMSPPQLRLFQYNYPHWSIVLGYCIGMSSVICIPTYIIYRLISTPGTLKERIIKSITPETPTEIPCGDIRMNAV

**Q.** What does the source list for Cc1ccc(Sc2ccccc2C2CCNCC2)cc1 [compound I, 4-[2-(4-methylphenylsulfanyl)phenyl]piperidine]?
**A.** IC50 (SERT): 8 nM; IC50 (NET): 23 nM; Kb ([1]; 0.1 nM-100 nM, read-out: Kb, antagonism in low concentrations): ~2 nM; EC50 ([1]; 100-100000 nM, read-out: EC50, agonistic properties in higher concentrations): ~2600 nM; maximal current, % of the maximal current elicited by 5-HT itself ([1]; agonism at higher concentrations (100-100000 nM)): 70-80%; IC50 ([1]; read-out: IC50, antagonism in low concentrations): ~10 nM; Ki (α1A receptor): 34 nM; extra-cellular acetylcholine levels in the brain [2]: dose dependent increase; enhancement of DA levels above baseline levels ([3]; 8.9 mg/kg s.c.): approximately 100%; enhancement of DA levels above baseline levels ([3]; 18 mg/kg s.c.): ~150%; time spent licking the injured paw, 0-5 minutes ([4]; 1.0 mg/kg, first phase): 37 s; time spent licking the injured paw, 20-30 minutes ([4]; 1.0 mg/kg, second phase): 43 s; time spent licking the injured paw, 0-5 minutes ([4]; 10 mg/kg, first phase): 37 s; effect in the first phase (direct chemical irritation and nociception) ([4]; first phase, in words): little effect; time spent licking paws in the second phase ([4]; second phase, in words): clear and dose dependent decrease; Ki (5-HT2A receptors [5]): 54 nM; Ki (5-HT2A receptors [6]): < 100 nM; Kb (5-HT2A receptors [7]; Kb, antagonism of 5-HT evoked release of Ca2+ from intracellular stores, functional assay): 67 nM; Kb (5-HT2A receptors [7]; schild analysis, read-out: Kb, schild analysis (competitive antagonism)): 100 nM
